In US10227336B2, “Pyrazole orexin receptor antagonists” (MERCK SHARP & DOHME CORP., priority 2014, dated 2019):
pIC50: −log10 of the molar value.

Key:
[1] = molecular target: hOX1R (Homo sapiens, UniProt O43613); assay: FLIPR Ca2+ Flux Assay, hOX1R; type: cell-based; details: CHO cells expressing orexin-1 receptor (head: hOX1R; method: rat); agonist 70 pM Ala-6,12 orexin-A
Procedure: The utility of the compounds in accordance with the present invention as orexin receptor OX1R and/or OX2R antagonists may be readily determined without undue experimentation by methodology well known in the art, including the “FLIPR Ca^2+ Flux Assay” (Okumura et al., Biochem. Biophys. Res. Comm. 280:976-981, 2001). In a typical experiment the OX1 and OX2 receptor antagonistic activity of the compounds of the present invention was determined in accordance with the following experimental method. […] The cells are seeded at 20,000 cells/well into Becton-Dickinson black 384-well clear bottom sterile plates coated with poly-D-lysine. All reagents were from GIBCO-Invitrogen Corp. The seeded plates are incubated overnight at 37° C. and 5% CO2. Ala-6,12 human orexin-A as the agonist is prepared as a 1 mM stock solution in 1% bovine serum albumin (BSA) and diluted in assay buffer (HBSS containing 20 mM HEPES, 0.1% BSA and 2.5 mM probenecid, pH7.4) for use in the assay at a final concentration of 70 pM. Test compounds are prepared as 10 mM stock solution in DMSO, then diluted in 384-well plates, first in DMSO, then assay buffer. On the day of the assay, cells are washed 3 times with 100 μl assay buffer and then incubated for 60 min (37° C., 5% CO2) in 60 μl assay buffer containing 1 μM Fluo-4AM ester, 0.02% pluronic acid, and 1% BSA. The dye loading solution is then aspirated and cells are washed 3 times with 100 μl assay buffer. 30 μl of that same buffer is left in each well. Within the Fluorescent Imaging Plate Reader (FLIPR, Molecular Devices), test compounds are added to the plate in a volume of 25 μl, incubated for 5 min and finally 25 μl of agonist is added. Fluorescence is measured for each well at 1 second intervals for 5 minutes and the height of each fluorescence peak is compared to the height of the fluorescence peak induced by 70 pM Ala-6,12 orexin-A with buffer in place of antagonist. For each antagonist, IC50 value (the concentration of compound needed to inhibit 50% of the agonist response) is determined. Alternatively, compound potency can be assessed by a radioligand binding assay (described in Bergman et. al. Bioorg. Med. Chem. Lett. 2008, 18, 1425-1430) in which the inhibition constant (Ki) is determined in membranes prepared from CHO cells expressing either the OX1 or OX2 receptor. The intrinsic orexin receptor antagonist activity of a compound which may be used in the present invention may be determined by these assays.

[2] = molecular target: human orexin-2 receptor (Homo sapiens (Human), UniProt O43614); assay: FLIPR Ca2+ Flux Assay, hOX2R; type: cell-based; details: CHO cells expressing the human orexin-2 receptor; agonist 70 pM Ala-6,12 orexin-A
Procedure: The utility of the compounds in accordance with the present invention as orexin receptor OX1R and/or OX2R antagonists may be readily determined without undue experimentation by methodology well known in the art, including the “FLIPR Ca^2+ Flux Assay” (Okumura et al., Biochem. Biophys. Res. Comm. 280:976-981, 2001). In a typical experiment the OX1 and OX2 receptor antagonistic activity of the compounds of the present invention was determined in accordance with the following experimental method. For intracellular calcium measurements, Chinese hamster ovary (CHO) cells expressing the rat orexin-1 receptor or the human orexin-2 receptor, are grown in Iscove's modified DMEM containing 2 mM L-glutamine, […], 1% hypoxanthine-thymidine supplement, 100 U/ml penicillin, 100 μg/ml streptomycin and 10% heat-inactivated fetal calf serum (FCS). The cells are seeded at 20,000 cells/well into Becton-Dickinson black 384-well clear bottom sterile plates coated with poly-D-lysine. All reagents were from GIBCO-Invitrogen Corp. The seeded plates are incubated overnight at 37° C. and 5% CO2. Ala-6,12 human orexin-A as the agonist is prepared as a 1 mM stock solution in 1% bovine serum albumin (BSA) and diluted in assay buffer (HBSS containing 20 mM HEPES, 0.1% BSA and 2.5 mM probenecid, pH7.4) for use in the assay at a final concentration of 70 pM. Test compounds are prepared as 10 mM stock solution in DMSO, then diluted in 384-well plates, first in DMSO, then assay buffer. On the day of the assay, cells are washed 3 times with 100 μl assay buffer and then incubated for 60 min (37° C., 5% CO2) in 60 μl assay buffer containing 1 μM Fluo-4AM ester, 0.02% pluronic acid, and 1% BSA. The dye loading solution is then aspirated and cells are washed 3 times with 100 μl assay buffer. 30 μl of that same buffer is left in each well. Within the Fluorescent Imaging Plate Reader (FLIPR, Molecular Devices), test compounds are added to the plate in a volume of 25 μl, incubated for 5 min and finally 25 μl of agonist is added. Fluorescence is measured for each well at 1 second intervals for 5 minutes and the height of each fluorescence peak is compared to the height of the fluorescence peak induced by 70 pM Ala-6,12 orexin-A with buffer in place of antagonist. For each antagonist, IC50 value (the concentration of compound needed to inhibit 50% of the agonist response) is determined. Alternatively, compound potency can be assessed by a radioligand binding assay (described in Bergman et. al. Bioorg. Med. Chem. Lett. 2008, 18, 1425-1430) in which the inhibition constant (Ki) is determined in membranes prepared from CHO cells expressing either the OX1 or OX2 receptor. The intrinsic orexin receptor antagonist activity of a compound which may be used in the present invention may be determined by these assays.

human orexin-2 receptor, sequence (O43614 whole entry): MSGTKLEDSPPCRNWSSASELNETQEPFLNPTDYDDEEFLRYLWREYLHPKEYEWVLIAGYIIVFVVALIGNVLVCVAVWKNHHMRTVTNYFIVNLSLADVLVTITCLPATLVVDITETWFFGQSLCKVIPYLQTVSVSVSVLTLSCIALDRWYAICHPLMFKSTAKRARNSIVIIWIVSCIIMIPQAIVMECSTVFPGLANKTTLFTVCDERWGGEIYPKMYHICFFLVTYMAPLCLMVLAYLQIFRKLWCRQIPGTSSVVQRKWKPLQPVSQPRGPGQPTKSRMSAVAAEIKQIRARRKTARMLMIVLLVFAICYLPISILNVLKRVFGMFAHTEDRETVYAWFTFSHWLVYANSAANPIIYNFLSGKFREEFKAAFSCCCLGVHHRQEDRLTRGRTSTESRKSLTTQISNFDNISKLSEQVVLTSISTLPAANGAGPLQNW

| Compound | pIC50 [1] | pIC50 [2] |
| --- | --- | --- |
| CCn1cc([C@@H]2CC[C@@H](C)N(C(=O)c3ccccc3-n3nccn3)C2)cn1 [Example 1, (2R,5S)-5-(1-Ethyl-1H-pyrazol-4-yl)-2-methyl-1-{[2-(2H-1,2,3-triazol-2-yl)phenyl]carbonyl}piperidine] | < 5.00 | 6.86 |
| CC(C)n1cc([C@@H]2CC[C@@H](C)N(C(=O)c3ccccc3-n3nccn3)C2)cn1 [Example 2, (2R,5S)-2-methyl-5-[1-(1-methylethyl)-1H-pyrazol-4-yl]-1-1{[2-(2H-1,2,3-triazol-2-yl)phenyl]carbonyl}piperidine] | 5.47 | 7.47 |
| C[C@@H]1CC[C@@H](c2cnn(CC3CC3)c2)CN1C(=O)c1ccccc1-n1nccn1 [Example 3, (2R,5S)-5-[1-(cyclopropylmethyl)-1H-pyrazol-4-yl]-2-methyl-1-{[2-(2H-1,2,3-triazol-2-yl)phenyl]carbonyl}piperidine] | 5.11 | 6.91 |
| C[C@@H]1CC[C@@H](c2cnn(C3CCCC3)c2)CN1C(=O)c1ccccc1-n1nccn1 [Example 4, (2R,5S)-5-(1-cyclopentyl-1H-pyrazol-4-yl)-2-methyl-1-{[2-(2H-1,2,3-triazol-2-yl)phenyl]carbonyl}piperidine] | 5.84 | 7.41 |
| C[C@@H]1CC[C@@H](c2cnn(CC(F)(F)F)c2)CN1C(=O)c1ccccc1-n1nccn1 [Example 5, (2R,5S)-2-methyl-1-{[2-(2H-1,2,3-triazol-2-yl)phenyl]carbonyl}-5-[1-(2,2,2-trifluoroethyl)-1H-pyrazol-4-yl]piperidine] | < 5.00 | 7.12 |
| C[C@@H]1CC[C@@H](c2cnn(CC(F)F)c2)CN1C(=O)c1ccccc1-n1nccn1 [Example 6, (2R,5S)-5-[1-(2,2-difluoroethyl)-1H-pyrazol-4-yl]-2-methyl-1-{[2-(2H-1,2,3-triazol-2-yl)phenyl]carbonyl}piperidine] | < 5.00 | 6.74 |
| COC(=O)C(C)(C)n1cc([C@@H]2CC[C@@H](C)N(C(=O)c3ccccc3-n3nccn3)C2)cn1 [Example 7, methyl 2-methyl-2-{4-[(3S,6R)-6-methyl-1-{[2-(2H-1,2,3-triazol-2-yl)phenyl]carbonyl}piperidin-3-yl]-1H-pyrazol-1-yl}propanoate] | 5.52 | 7.34 |
| C[C@@H]1CC[C@@H](c2cnn(C3CCC3)c2)CN1C(=O)c1ccccc1-n1nccn1 [Example 8, (2R,5S)-5-(1-cyclobutyl-1H-pyrazol-4-yl)-2-methyl-1-{[2-(2H-1,2,3-triazol-2-yl)phenyl]carbonyl}piperidine] | 5.46 | 7.31 |
| C[C@@H]1CC[C@@H](c2cnn(C3CCOC3)c2)CN1C(=O)c1ccccc1-n1nccn1 (stereo partly drawn) [Example 9, (2R,5S)-2-methyl-5-[1-(tetrahydrofuran-3-yl)-1H-pyrazol-4-yl]-1-{[2-(2H-1,2,3-triazol-2-yl)phenyl]carbonyl}piperidine] | < 5.00 | 6.22 |
| C[C@@H]1CC[C@@H](c2cnn(CC(C)(C)O)c2)CN1C(=O)c1ccccc1-n1nccn1 [Example 10, 2-Methyl-1-{4-[(3S,6R)-6-methyl-1-{[2-(2H-1,2,3-triazol-2-yl)phenyl]carbonyl}piperidin-3-yl]-1H-pyrazol-1-yl}propan-2-ol] | < 5.00 | 6.71 |
| C[C@@H]1CC[C@@H](c2cnn(C3CC3)c2)CN1C(=O)c1ccccc1-n1nccn1 [Example 11, (2R,5S)-5-(1-Cyclopropyl-1H-pyrazol-4-yl)-2-methyl-1-{[2-(2H-1,2,3-triazol-2-yl)phenyl]carbonyl}piperidine] | < 5.00 | 7.25 |
| CC(C)n1cc([C@@H]2CC[C@@H](C)N(C(=O)c3ccsc3-n3nccn3)C2)cn1 [Example 12, (2R,5S)-2-Methyl-5-[1-(1-methylethyl)-1H-pyrazol-4-yl]-1-{[2-(2H-1,2,3-triazol-2-yl)thiophen-3-yl]carbonyl}piperidine] | < 5.00 | 6.52 |
| CC(C)n1cc([C@@H]2CC[C@@H](C)N(C(=O)c3ccsc3-c3ncccn3)C2)cn1 [Example 13, 2[3-({(2R,5S)-2-methy1-5-[1-(1-methylethyl)-1H-pyrazol-4-yl]piperidin-1-yl}carbonyl)thiophen-2-yl]pyrimidine] | < 5.00 | 6.81 |
| CC(C)n1cc([C@@H]2CC[C@@H](C)N(C(=O)c3cscc3-n3nccn3)C2)cn1 [Example 14, (2R,5S)-2-methyl-5-[1-(1-methylethyl)-1H-pyrazol-4-yl]-1-{[4-(2H-1,2,3-triazol-2-yl)thiophen-3-yl]carbonyl}piperidine] | < 5.00 | 6.37 |
| CC(C)n1cc([C@@H]2CC[C@@H](C)N(C(=O)c3ccc(F)cc3-n3nccn3)C2)cn1 [Example 15, (2R,5S)-1-{[4-fluoro-2-(2H-1,2,3-triazol-2-yl)phenyl]carbonyl}-2-methyl-5-[1-(1-methylethyl)-1H-pyrazol-4-yl]piperidine] | < 5.00 | 6.95 |
| CC(C)n1cc([C@@H]2CC[C@@H](C)N(C(=O)c3ccccc3-n3ncnn3)C2)cn1 [Example 16, (2R,5S)-2-methyl-5-[1-(1-methylethyl)-1H-pyrazol-4-yl]-1-{[2-(2H-tetrazol-2-yl)phenyl]carbonyl}piperidine] | < 5.00 | 6.59 |
